Data from patent publication US20250326771A1, “PIPERAZINE DERIVATIVES USEFUL IN HIV THERAPY” (VIIV HEALTHCARE COMPANY, priority 2022, published 2025).
Like-named read-outs stand apart in the source and are kept apart here.

How the values were obtained:
[1] = molecular target: XIAP-BIR2 (Homo sapiens (Human), UniProt P98170); experiment: BIR binding assay (FRET competition), XIAP BIR2
Summary of the method: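 Compounds in a 15-point, 3-fold series competed with an AlexaFluor647 SMAC peptide (AVPIAQKSE, 200 nM) for 200 nM His-tagged XIAP-BIR2 over 60 min in pH 7.4 HEPES/CHAPS/DTT buffer. Eu-W1024 (2 nM) was then added for 30 min. IC50 and pIC50 were derived from the 615 nm/665 nm emission ratio by variable-slope fit.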

[2] = molecular target: cIAP2-BIR3 (Homo sapiens (Human), UniProt Q13489); experiment: BIR binding assay (FRET competition), cIAP2 BIR3; settings: for cIAP2 BIR3 vs BIR2 separation window: fold separation (FS) for cIAP2
cIAP2-BIR3, sequence (Q13489 238-349): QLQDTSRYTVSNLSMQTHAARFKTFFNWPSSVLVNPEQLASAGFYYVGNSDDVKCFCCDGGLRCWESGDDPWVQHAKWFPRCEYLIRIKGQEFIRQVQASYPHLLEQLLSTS

[3] = molecular target: cIAP1-BIR2 (Homo sapiens (Human), UniProt Q13490); experiment: BIR binding assay (FRET competition), cIAP1 BIR2
cIAP1-BIR2, sequence (Q13490 173-257): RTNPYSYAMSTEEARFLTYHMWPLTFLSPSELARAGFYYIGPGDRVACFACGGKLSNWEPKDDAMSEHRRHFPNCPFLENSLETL
Summary of the method: (§1)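 Each domain is run separately at its own level: 50 nM cIAP1-BIR3, 100 nM XIAP-BIR3, 325 nM for cIAP1-BIR2 or cIAP2-BIR2. Probe is a 200 nM fluorescent SMAC peptide, and the value is IC50 from FRET competition.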

[4] = molecular target: XIAP-BIR3 (Homo sapiens (Human), UniProt P98170); experiment: BIR binding assay (FRET competition), XIAP BIR3; settings: for XIAP BIR3 vs BIR2 separation window: fold separation (FS) for XIAP
XIAP-BIR3, sequence (P98170 241-356): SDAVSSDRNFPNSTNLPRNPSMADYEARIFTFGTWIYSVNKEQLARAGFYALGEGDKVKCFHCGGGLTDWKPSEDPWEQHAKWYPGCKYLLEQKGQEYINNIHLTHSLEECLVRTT
Summary of the method: as §1

[5] = molecular target: cIAP2-BIR2 (Homo sapiens (Human), UniProt Q13489); experiment: BIR binding assay (FRET competition), cIAP2 BIR2
cIAP2-BIR2, sequence (Q13489 158-242): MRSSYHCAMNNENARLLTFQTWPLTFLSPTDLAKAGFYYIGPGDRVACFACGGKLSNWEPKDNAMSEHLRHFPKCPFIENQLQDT
Summary of the method: as §1

[6] = molecular target: cIAP1-BIR3 (Homo sapiens (Human), UniProt Q13490); experiment: BIR binding assay (FRET competition), cIAP1 BIR3; settings: for cIAP1 BIR3 vs BIR2 separation window: fold separation (FS) for cIAP1
cIAP1-BIR3, sequence (Q13490 253-363): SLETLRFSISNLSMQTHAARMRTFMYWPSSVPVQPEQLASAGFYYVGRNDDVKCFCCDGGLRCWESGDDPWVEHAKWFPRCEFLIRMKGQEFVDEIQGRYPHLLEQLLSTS
Summary of the method: as §1

[7] = system: Jurkat HIV-luciferase clones; experiment: Jurkat latency reversal assay; type: cell-based; settings: Homo sapiens, 48 h; Jurkat latency reversal assay potency; read-out: Jurkat pEC50 (converted)
Summary of the method: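 Luminescence read-out: Steady-Glo after 48 h, 37° C, on mixed Jurkat HIV-luc clones (C16, 115, N6; 5,000 cells/well total). Cpd 14-pt 3-fold dilutions, duplicate, top 10 μM, 0.5% DMSO. EC50 + max % activation vs vehicle via 4-parameter fit.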

[8] = FRET competition binding, read-out: XIAP BIR2 (pIC50) (converted)
[9] = FRET competition, read-out: XIAP BIR2 (pIC50) (converted)

XIAP-BIR2, sequence (P98170 124-240): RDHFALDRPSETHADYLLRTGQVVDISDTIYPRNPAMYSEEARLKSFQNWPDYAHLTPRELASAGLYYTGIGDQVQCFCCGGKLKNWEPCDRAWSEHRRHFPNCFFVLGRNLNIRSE

Compound | IC50 [1, 8] [nM] | IC50 [2] [nM] | cIAP2 BIR3 vs BIR2 separation window [2] | IC50 [3] [nM] | IC50 [4] [nM] | XIAP BIR3 vs BIR2 separation window [4] | IC50 [5] [nM] | IC50 [6] [nM] | cIAP1 BIR3 vs BIR2 separation window [6] | EC50 [7] [nM] | IC50 [1] [nM] | IC50 [1, 9] [nM]
C[C@@H]1CN(CC(=O)N2CC(C)(C)c3[nH]c(=O)c(Cc4ccc(F)cc4)cc32)[C@@H](CN2CCO[C@H](C(=O)N(C)CCCCCCN(C)C(=O)[C@@H]3CN(C[C@H]4CN[C@H](C)CN4CC(=O)N4CC(C)(C)c5[nH]c(=O)c(Cc6ccc(F)cc6)cc54)CCO3)C2)CN1 [Example 124, (2S,2'S)-N,N′-(hexane-1,6-diyl)bis(4-(((2R,5R)-1-(2-(6-(4-fluorobenzyl)-3,3-dimethyl-5-oxo-2,3,4,5-tetrahydro-1H-pyrrolo[3,2-b]pyridin-1-yl)-2-oxoethyl)-5-methylpiperazin-2-yl)methyl)-N-methylmorpholine-2-carboxamide)] | 10000 to 51300 | 7.94 to 15.8 | +++ (10,000>FS>1,000) | 1000 to 3160 | 7.94 to 15.8 | ++++ (FS>10,000) | 1000 to 3160 | 7.94 to 15.8 | +++ (10,000>FS>1,000) | 12.6 to 63.1 | – | –
C[C@@H]1CN(CC(=O)N2CC(C)(C)c3ncc(Cc4ccccc4)cc32)[C@@H](CN2CCO[C@H](COc3cccc(OC[C@@H]4CN(C[C@H]5CN[C@H](C)CN5CC(=O)N5CC(C)(C)c6ncc(Cc7ccccc7)cc65)CCO4)c3)C2)CN1 [Compound 150] | – | 7.94 to 15.8 | ++++ (FS>10,000) | 3160 to 10000 | 15.8 to 31.6 | ++++ (FS>10,000) | 10000 to 51300 | 7.94 to 15.8 | +++ (10,000>FS>1,000) | 12.6 to 63.1 | 10000 to 51300 | –
C[C@@H]1CN(CC(=O)N2CC(C)(C)c3[nH]c(=O)c(Cc4ccc(F)cc4)cc32)[C@@H](CN2CCC[C@@H](NC(=O)Cc3ccc(CC(=O)N[C@@H]4CCCN(C[C@H]5CN[C@H](C)CN5CC(=O)N5CC(C)(C)c6[nH]c(=O)c(Cc7ccc(F)cc7)cc65)C4)cc3)C2)CN1 [Example 48, 2,2′-(1,4-phenylene)bis(N-((R)-1-(((2R,5R)-1-(2-(6-(4-fluorobenzyl)-3,3-dimethyl-5-oxo-2,3,4,5-tetrahydro-1H-pyrrolo[3,2-b]pyridin-1-yl)-2-oxoethyl)-5-methylpiperazin-2-yl)methyl)piperidin-3-yl)acetamide)] | 10000 to 51300 | 15.8 to 31.6 | ++++ (FS>10,000) | 10000 to 51300 | 15.8 to 31.6 | ++++ (FS>10,000) | 10000 to 51300 | 15.8 to 31.6 | +++ (10,000>FS>1,000) | 316 to 3310 | – | –
C[C@@H]1CN(CC(=O)N2CC(C)(C)c3[nH]c(=O)c(Cc4ccccc4)cc32)[C@@H](CN2CCO[C@H](C(=O)NCc3ccc(CNC(=O)[C@@H]4CN(C[C@H]5CN[C@H](C)CN5CC(=O)N5CC(C)(C)c6[nH]c(=O)c(Cc7ccccc7)cc65)CCO4)cc3)C2)CN1 [Compound 186, (2S,2′S)-N,N′-(1,4-phenylenebis(methylene)) bis(4-(((2R,5R)-1-(2-(6-benzyl-3,3-dimethyl-5-oxo-2,3,4,5-tetrahydro-1H-pyrrolo[3,2-b]pyridin-1-yl)-2-oxoethyl)-5-methylpiperazin-2-yl)methyl)morpholine-2-carboxamide)] | – | 1.38 to 7.94 | +++ (10,000>FS>1,000) | 22.4 to 1000 | 15.8 to 31.6 | ++++ (FS>10,000) | 1000 to 3160 | 7.94 to 15.8 | ++ (1,000>FS>100) | 12.6 to 63.1 | – | 10000 to 51300
C[C@@H]1CN(CC(=O)N2CC(C)(C)c3[nH]c(=O)c(Cc4ccc(F)cc4)cc32)[C@@H](CN2CCO[C@H](C(=O)NCC(C)(C)CNC(=O)[C@@H]3CN(C[C@H]4CN[C@H](C)CN4CC(=O)N4CC(C)(C)c5[nH]c(=O)c(Cc6ccc(F)cc6)cc54)CCO3)C2)CN1 [Compound 139, (2S,2′S)-N,N′-(2,2-dimethylpropane-1,3-diyl)bis(4-(((2R,5R)-1-(2-(6-(4-fluorobenzyl)-3,3-dimethyl-5-oxo-2,3,4,5-tetrahydro-1H-pyrrolo[3,2-b]pyridin-1-yl)-2-oxoethyl)-5-methylpiperazin-2-yl)methyl)morpholine-2-carboxamide)] | – | 7.94 to 15.8 | +++ (10,000>FS>1,000) | 1000 to 3160 | 31.6 to 501 | +++ (10,000>FS>1,000) | 1000 to 3160 | 7.94 to 15.8 | +++ (10,000>FS>1,000) | 63.1 to 316 | – | 10000 to 51300
C[C@@H]1CN(CC(=O)N2CC(C)(C)c3[nH]c(=O)c(Cc4ccc(Cl)cc4C(=O)N(C)C)cc32)[C@@H](CN2CCO[C@H](C(=O)NCc3ccc(CNC(=O)[C@@H]4CN(C[C@H]5CN[C@H](C)CN5CC(=O)N5CC(C)(C)c6[nH]c(=O)c(Cc7ccc(Cl)cc7C(=O)N(C)C)cc65)CCO4)cc3)C2)CN1 [Compound 172, (2S,2′S)-N,N′-(1,4-phenylenebis(methylene)) bis(4-(((2R,5R)-1-(2-(6-(4-chloro-2-(dimethylcarbamoyl)benzyl)-3,3-dimethyl-5-oxo-2,3,4,5-tetrahydro-1H-pyrrolo[3,2-b]pyridin-1-yl)-2-oxoethyl)-5-methylpiperazin-2-yl)methyl)morpholine-2-carboxamide)] | – | 7.94 to 15.8 | ++++ (FS>10,000) | 10000 to 51300 | 31.6 to 501 | ++++ (FS>10,000) | 10000 to 51300 | 7.94 to 15.8 | +++ (10,000>FS>1,000) | 316 to 3310 | – | 10000 to 51300
C[C@@H]1CN(CC(=O)N2CC(C)(C)c3[nH]c(=O)c(Cc4ccc(F)cc4)cc32)[C@@H](CN2CCO[C@H](C(=O)NCCNC(=O)[C@@H]3CN(C[C@H]4CN[C@H](C)CN4CC(=O)N4CC(C)(C)c5[nH]c(=O)c(Cc6ccc(F)cc6)cc54)CCO3)C2)CN1 [Example 128, (2S,2'S)-N,N′-(ethane-1,2-diyl)bis(4-(((2R,5R)-1-(2-(6-(4-fluorobenzyl)-3,3-dimethyl-5-oxo-2,3,4,5-tetrahydro-1H-pyrrolo[3,2-b]pyridin-1-yl)-2-oxoethyl)-5-methylpiperazin-2-yl)methyl)morpholine-2-carboxamide)] | 10000 to 51300 | 7.94 to 15.8 | +++ (10,000>FS>1,000) | 3160 to 10000 | 15.8 to 31.6 | ++++ (FS>10,000) | 3160 to 10000 | 15.8 to 31.6 | +++ (10,000>FS>1,000) | 316 to 3310 | – | –
C[C@@H]1CN(CC(=O)N2CC(C)(C)c3[nH]c(=O)c(Cc4ccc(F)cc4)cc32)[C@@H](CN2CCO[C@H](COCc3cccc(COC[C@@H]4CN(C[C@H]5CN[C@H](C)CN5CC(=O)N5CC(C)(C)c6[nH]c(=O)c(Cc7ccc(F)cc7)cc65)CCO4)c3)C2)CN1 [Example 80, 1,1′-(2,2′-((3R,3′R,6R,6′R)-(((2S,2'S)-(((1,3-phenylenebis(methylene))bis(oxy))bis(methylene))bis(morpholine-2,4-diyl))bis(methylene))bis(3-methylpiperazine-6,1-diyl))bis(acetyl))bis(6-(4-fluorobenzyl)-3,3-dimethyl-1,2,3,4-tetrahydro-5H-pyrrolo[3,2-b]pyridin-5-one)] | 10000 to 51300 | 1.38 to 7.94 | +++ (10,000>FS>1,000) | 1000 to 3160 | 1.38 to 7.94 | ++++ (FS>10,000) | 3160 to 10000 | 1.38 to 7.94 | +++ (10,000>FS>1,000) | 0.49 to 12.6 | – | –
